Four substances from US6686333B1, “Inhibition of HIV replication using soluble Tat peptide analogs” (priority 1996, dated 2004) can be followed below.

Test [1] has as its system Tat transactivation of the HIV-1 promoter. Description: Transfection and CAT assay: Tat transactivation of HIV-1 LTR-CAT reporter in electroporated CEM lymphocytes. The format is cell-based. The following applies: for Tat transactivation (CAT) in presence of peptide: suppression from 95.7, Tat protein 1 μg, peptide 5 μg, HIV-1 LTR-CAT 5 μg, CEM. How it is done:
Initial studies focused on the analysis of a series of Tat peptide analogs, containing various amino acid substitutions, for their ability to inhibit Tat transactivation of the HIV-1 promoter. CEM lymphocytes, grown to early- to mid-log phase, were electroporated with the Tat protein (1 μg), Tat core peptide 36-50 (5 μg) and the HIV-1 LTR-CAT reporter (5 μg).
(§1) Cells were electroporated as described previously (Kashanchi F, et al. (1992), Nucleic Acids Res, 20:4673-4674). CEM CD4^+ lymphocytes (12D7) (as well as U1 and HeLa cells described in subsequent examples) were kept at a density of 0.5 to 0.8×10^6 cells/ml with media added daily. Typically, 5×10^6 cells were electroporated with purified peptides, Tat protein and/or 5 μg of a reporter plasmid. Synthetic Tat peptides were purified by HPLC to 95 percent purity (Peptide Technologies Corporation, Gaithersburg, Md.). All peptides were analyzed for purity on a 4-20 percent gradient SDS/PAGE followed by silver staining. Recombinant Tat protein was purified by reverse phase HPLC and tested for functional activity in an in vitro transcription assay and in vivo electroporation into CEM cells (Kashanchi F, et al. (1992), Nucleic Acids Res, 20:4673-4674; Bohan Calif., et al. (1992) Gene Expr, 2:391-407). Tat peptide, Tat protein, and the reporter HIV LTR-CAT were mixed with cells and electroporated using a cell porater apparatus (Gibco/BRL, Gaithersburg, Md.). Cell mixtures were electroporated at 800 μF, 230 volts, in RPMI 1640 media without fetal calf serum. Following electroporation, cells were plated in 10 ml of complete media and samples collected 48 hours later for either CAT assay, p24 Gag antigen capture assay or northern blot analysis. Samples receiving rTNF-α (R & D System, Minneapolis, MN) after electroporation were collected 48 hours post-treatment for p24 Gag antigen capture assay (ABI, Bethesda, Md.).

Test [2] has as its system HIV-1 virus replication in U1/U937 co-cultivation. Description: Co-cultivation of transfected U1 cells with U937 monocyte cell line. The following applies: seven days of co-cultivation U1:U937 1:5; peptide 2.5 μg with Tat protein. The format is cell-based. The source says: It was of interest to determine whether the level of virus particles produced in the presence of Tat peptide analog 41/44 was sufficient to initiate a second round of virus replication. This is an important point to consider when designing specific inhibitors for HIV, since detection of p24 or reverse transcriptase in particles is not necessarily an indication of infectious particles. Dimitrov and Martin, Nature, 375:194-195 (1994). To address this question, we utilized co-cultivation assays in which the induced Ul cells were co-cultivated with the parental U937 monocyte cell line.
Transfected U1 cells (5×10^6) were co-cultivated with the U937 cells 48 hrs after transfection. The co-cultivation assay was initially tested using either a 1:1, 1:5, or 1:25 ratio of infected to uninfected cells. A 1:5 co-cultivation was determined to be the optimal ratio in obtaining the highest viral production within a 2 week period. Cells were co-cultivated in a total of 4 mls for a period of 2 weeks. After the fist week, 2 mls of media cells was removed and 2 mls of fresh media added. Both U937 and CEM cells were seeded at a density of 0.5×10^6 cells per culture dish prior to the co-cultivation experiment.
Initially, cells were electroporated with either wild type (2.5 μg) or peptide analog 41/44 (2.5 μg), along with Tat protein. […]

Another test concerns CMV promoter. The test can be described thus: CAT assay with pCMV-CAT reporter. The format is cell-based. The settings on record: decreased from 17.8. How it is done:
as §1, with “Samples receiving rTNF-α (R & D System, Minneapolis, MN) after electroporation were collected 48 hours post-treatment for p24 Gag antigen capture assay (ABI, Bethesda, Md.).” left out

Test [3] deals with HIV virus replication in U1 cells. Description: Tat-induced virus production in latently infected U1 cells, p24 antigen capture assay. It is filed as cell-based, HIV-1. The settings on record: Tat protein 2.5 μg. How it is done: as §1, with “Samples receiving rTNF-α (R & D System, Minneapolis, MN) after electroporation were collected 48 hours post-treatment for p24 Gag antigen capture assay (ABI, Bethesda, Md.).” left out

In test [4] the test system is TBP/Tat-activated transcription. The test can be described thus: Gal4-Tat / CMV-TBP activated minimal HIV-1 promoter CAT assay in CEM cells. The format is cell-based. The following applies: CEM T-cells, Gal4-TATA+/TAR- reporter. As to the method:
It was of interest to determine if the Tat peptide analog targeted the interaction of Tat with TBP in vivo. For these experiments, we used a minimal HIV-1 promoter (−31 to +21) with Gal4 binding sites located upstream of the promoter. CEM cells were transfected with combinations of Gal4-TATA^+/TAR^− reporter plasmid, Gal4-Tat and a CMV-TBP expression plasmid. Southgate CD, et al. (1991), Genes Dev, 5:2496-2507; Horikoshi N, et al. (1995), Mol Cell Biol, 15:227-234. Peptides were added at the time of electroporation. Following electroporation, cells were plated in complete media, harvested at 48 hours and CAT assays performed. The Gal4-TAT^+/TAR^− plasmid contains six Gal4 binding sites, followed by the HIV sequence from −31 to […]. This construct contains no Sp1 sites or a TAR element.
The ability of Gal4-Tat to activate this promoter is dependent upon the presence of exogenously added TBP. […] Xhou Q, et al. (1995), EMBO J, 14:321-328; Huang L M, et al. (1994), EMBO, 13:2886-2896. We next examined if the peptides were capable of downregulating the TBP/Tat-activated transcription by electroporating CEM T-cells with either wild type or peptide 41/44.

Another test deals with HTLV-1 promoter. The test can be described thus: CAT assay with HTLV-1 LTR (pU3R CAT) reporter, basal and Tax1 transactivated. The format is cell-based. The settings on record: for basal transcription of the HTLV-1 promoter: decreased from 19. As to the method:
as §1
(§2) It was of interest to determine if the peptides inhibited transcription from other polymerase II promoters. We have tested seven promoters including HTLV-1, CMV, PTHrP, IgH, RAS, RSV, and SIV. Each promoter, cloned upstream of the CAT reporter gene, was cotransfected individually with the Tat peptides under identical conditions. Electroporation was as in Example 1 but reporter genes used were HTLV-1 LTR (pU3R CAT, 5 μg) or pCMV-CAT (5 μg), containing the CMV promoter. […] For example, basal transcription of the HTLV-1 promoter decreased from 19 to 15.6 and 16.4 percent using 1 and 5,μg of the peptide analog 41/44. Similarly, Tat peptide analog 41/44 decreased Tax1 (1 μg) transactivated transcription approximately two-fold (49.2 to 22.8 percent). In other control experiments, transcription from the CMV promoter was decreased from 17.8 to 9.04 and 6.7 percent in the presence of 1 or 5 μg of Tat peptide analog 41/44.

Another test deals with HIV-1 viral mRNA. Description: Northern blot of U1 cells, HIV-1 viral mRNA. The format is cell-based. The following applies: U1 cells treated with Tat and peptide, 48 hrs. As to the method:
(§3) For northern blot analysis, U1 or HLM1 (Tat HIV proviral clone, Sadaie M R, et al. (1994), Virology, 202:513-518) cells were transfected with either Tat protein, or Tat protein in combination with peptides and collected 48 hrs later. Total RNA was extracted using the Trizol reagent (Gibco/BRL). RNA concentration was measured and equivalent amounts of RNA (5 μg) were loaded on a formaldehyde-agarose gel. The RNA was blotted onto nitrocellulose and hybridized with a randomly primed ^32P-labelled HIV-1 proviral genome BH10 (Lofstrand, Inc.), histone H2b, β-Actin or GAPDH probe (Oncor Science, Inc.). Blots were washed, exposed and quantitated using a PhosphorImager (Molecular Dynamics) […].
(§4) Cellular RNAs including actin, histone H2b, and GAPDH, were monitored in cells treated with Tat and peptide analogs. […] In contrast, no change in the expression of the cellular GAPDH gene was observed.

The subject of test [5] is HTLV-1, CMV, PTHrP, IgH, RAS, RSV, and SIV promoters. Description: CAT assays with other polymerase II promoters. It is filed as cell-based. The following applies: seven promoters upstream of CAT, cotransfected with Tat peptides. How it is done: as §2
In a further test the test system is cellular GAPDH gene. Description: Northern blot of U1 cells, cellular RNA. The format is cell-based. The following applies: U1 cells treated with Tat and peptide. As to the method: as §3, §4

Consider “V-C-F-T-T-A-A-L-G-I-S-A-G-R-K (SEQ ID NO:9) (VCFTTAALGISAGRK) [Tat 36-50 (41/47)]”, for which the “Tat transactivation (CAT) in presence of peptide” value (from here on “Tat transactivation (CAT)”) in test [1] turned out to be 12%.

Consider “V-C-F-T-T-K-A-L-G-I-S-Y-G-R-K (SEQ ID NO:2) (VCFTTKALGISYGRK) [Tat 36-50, wild type Tat core peptide, amino acids 36-50, reference compound]”, for which the “drop in transcription activity” value in test [1] (peptide included in the transfection with Tat protein) is recorded as “no apparent drop in transcription activity”. The “decrease of virus production in co-cultivation” value in test [2] was “did not inhibit HIV virus replication”.

“V-C-F-T-T-A-A-L-G-I-A-Y-G-R-K (SEQ ID NO:8) (VCFTTAALGIAYGRK) [peptide 41/46]”: in test [1], the “Tat transactivation (CAT)” value is on record as 5.5%.

“V-C-F-T-T-A-A-L-A-I-S-Y-G-R-K (SEQ ID NO:7) (VCFTTAALSISYGRK) [Tat peptide analog 41/44]”: the “transcription from the CMV promoter” value in the test on CMV promoter (1 μg peptide) was determined as 9.04%; in the test with CMV promoter (5 μg peptide) it was 6.7%. Moreover, the “inhibition of virus replication in U1 cells” value in test [3] (comparable experiment with 36-72 peptides) is reported as “approximately 75%”. The “inhibition of Tat-induced virus production in U1 cells” value in test [3] (peptide 5 μg, in comparison to wild type peptide 5 μg, p24, 48 hours) was “approximately 85%”. In test [4], the “inhibition of TBP/Tat-activated transcription” value is reported as “inhibited TBP/Tat-activated transcription”. For the same substance, the “Tat transactivation (CAT)” value in test [1] was 1.1%. For the same substance, the results for the “basal transcription of the HTLV-1 promoter” value with HTLV-1 promoter (1 μg peptide) and in the test on HTLV-1 promoter (5 μg peptide) were 15.6% and 16.4%, respectively. Further, the “decrease of Tax1 transactivated transcription” value in the test on HTLV-1 promoter (Tax1 1 μg, 49.2 to 22.8 percent) is “approximately two-fold”. This substance came in with a Tax1 transactivated transcription in the test with HTLV-1 promoter (Tax1 1 μg, decreased from 49.2) of 22.8%. Besides, in the test on HIV-1 viral mRNA, the “level of HIV-1 viral mRNA” value was “a decrease in the level of HIV-1 viral mRNA was detected”. In addition, the “inhibition of transcription from other polymerase II promoters” value in test [5] was “minimal inhibition”. For the same substance, the “expression of the cellular GAPDH gene” value in the test on cellular GAPDH gene was “no change”. In addition, the “decrease of virus production in co-cultivation” value in test [2] turned out to be 85%.
